According to paper PMC10421868, “The acquisition order of leukemic drug resistance mutations is directed by the selective fitness associated with each resistance mechanism” (Scientific Reports, 2023):
One block for each molecule: values may come before it.

How the values were obtained:
K562 and K562 DasR cells = test: Intracellular uptake and retention (IUR) assay; type: in vitro ADME; details: 2 μM C14-dasatinib, 2 h, 37 °C
Procedure: To determine the quantity of intracellular dasatinib in leukemic cells, and the dasatinib transport functionality of ABCG2, the intracellular uptake and retention (IUR) assay was performed as previously described. K562 and K562 DasR cells were washed and incubated with 0 or 2 μM C^14-dasatinib kindly provided by Bristol Myers Squibb (New York, NY), in the presence or absence of 0.5 μM Ko143. This was performed using 2 × 10^5 cells in 2 mL of RPMI-1640 + 10% FCS, for 2 h at 37 °C. Following incubation, cells were pelleted by centrifugation for 5 min at 6800 rpm then 30 s at 13,000 rpm. Radioactivity of C^14-dasatinib was determined independently in the supernatant and cell pellet using a Tri-Carb 2810R Liquid Scintillation Counter (Perkin Elmer, Inc., Waltham, MA). The IUR was reported as ng of dasatinib incorporated per 200,000 cells. Results are expressed as paired –/ + Ko143 samples.

[1] = test system: Chronic Myeloid Leukemia patients; details: CML patients; cited from earlier work
[2] = target: BCR::ABL1 kinase activity (Homo sapiens, UniProt P00519+P11274)
Procedure: Western blotting for phosphorylated CT10 regulator of kinase-like (p-CrkL) was performed as previously described.

Chain of BCR::ABL1 kinase activity (P11274+P00519 fused): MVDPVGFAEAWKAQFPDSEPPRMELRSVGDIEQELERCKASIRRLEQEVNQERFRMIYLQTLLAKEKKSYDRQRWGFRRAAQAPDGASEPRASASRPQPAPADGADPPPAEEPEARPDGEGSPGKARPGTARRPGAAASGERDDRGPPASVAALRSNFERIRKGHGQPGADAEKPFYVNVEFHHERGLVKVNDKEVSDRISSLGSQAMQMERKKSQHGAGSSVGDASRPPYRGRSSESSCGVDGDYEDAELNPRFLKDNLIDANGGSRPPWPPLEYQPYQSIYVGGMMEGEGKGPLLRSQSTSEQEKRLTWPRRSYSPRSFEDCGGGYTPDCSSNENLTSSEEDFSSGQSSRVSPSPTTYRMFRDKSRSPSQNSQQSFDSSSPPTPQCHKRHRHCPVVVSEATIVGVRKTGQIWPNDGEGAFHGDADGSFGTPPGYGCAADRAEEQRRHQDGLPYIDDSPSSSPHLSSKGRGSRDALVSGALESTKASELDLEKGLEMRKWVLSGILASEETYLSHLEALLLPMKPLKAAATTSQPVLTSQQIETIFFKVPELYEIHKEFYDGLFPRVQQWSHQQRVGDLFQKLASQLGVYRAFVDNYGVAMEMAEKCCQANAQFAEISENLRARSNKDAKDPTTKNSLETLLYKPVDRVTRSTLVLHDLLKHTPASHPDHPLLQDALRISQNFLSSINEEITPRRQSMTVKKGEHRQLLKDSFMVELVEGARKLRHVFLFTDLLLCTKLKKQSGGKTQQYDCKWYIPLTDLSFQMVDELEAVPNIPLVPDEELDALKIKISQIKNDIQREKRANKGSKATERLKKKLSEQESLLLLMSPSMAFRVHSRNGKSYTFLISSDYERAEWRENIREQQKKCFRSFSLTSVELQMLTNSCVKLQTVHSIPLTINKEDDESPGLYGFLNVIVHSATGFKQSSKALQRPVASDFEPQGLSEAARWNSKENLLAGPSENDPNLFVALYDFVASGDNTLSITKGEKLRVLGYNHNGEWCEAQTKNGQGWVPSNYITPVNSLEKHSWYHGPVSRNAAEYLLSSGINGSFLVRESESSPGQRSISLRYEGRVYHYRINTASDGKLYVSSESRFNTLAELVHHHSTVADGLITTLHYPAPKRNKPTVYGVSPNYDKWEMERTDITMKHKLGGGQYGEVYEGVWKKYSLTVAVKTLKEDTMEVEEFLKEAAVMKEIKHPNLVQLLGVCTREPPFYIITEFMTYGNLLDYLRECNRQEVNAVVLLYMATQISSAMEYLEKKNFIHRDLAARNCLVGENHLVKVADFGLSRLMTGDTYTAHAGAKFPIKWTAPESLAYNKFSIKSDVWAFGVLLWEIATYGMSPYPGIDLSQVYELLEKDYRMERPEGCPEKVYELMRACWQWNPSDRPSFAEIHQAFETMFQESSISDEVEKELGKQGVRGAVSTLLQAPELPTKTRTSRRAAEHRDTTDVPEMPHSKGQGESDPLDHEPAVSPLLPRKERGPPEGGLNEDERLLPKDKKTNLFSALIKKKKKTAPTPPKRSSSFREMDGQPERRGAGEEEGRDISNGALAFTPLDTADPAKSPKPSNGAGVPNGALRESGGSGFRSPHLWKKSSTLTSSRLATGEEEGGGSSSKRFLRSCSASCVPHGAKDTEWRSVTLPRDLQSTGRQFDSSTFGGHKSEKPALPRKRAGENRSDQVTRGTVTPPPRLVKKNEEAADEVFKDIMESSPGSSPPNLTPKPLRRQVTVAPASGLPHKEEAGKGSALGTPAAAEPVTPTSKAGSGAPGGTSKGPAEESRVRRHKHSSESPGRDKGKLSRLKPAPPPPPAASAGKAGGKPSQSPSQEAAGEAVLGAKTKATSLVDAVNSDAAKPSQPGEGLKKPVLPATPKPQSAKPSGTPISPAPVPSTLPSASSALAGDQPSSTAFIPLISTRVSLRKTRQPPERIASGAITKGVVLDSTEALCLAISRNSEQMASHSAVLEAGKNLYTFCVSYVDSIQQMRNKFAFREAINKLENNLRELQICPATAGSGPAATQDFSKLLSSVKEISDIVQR

Intracellular dasatinib (IUR) (K562 and K562 DasR cells; K562 15 nM DasR cells, with 0.5 μM Ko143): 19.39 ng/200,000 cells
Dasatinib uptake (IUR) (K562 and K562 DasR cells; K562 15 nM DasR cells, without Ko143): 12.15 ng/200,000 cells
Dasatinib uptake (IUR) (K562 and K562 DasR cells; K562 control, with 0.5 μM Ko143): 22.07 ng/200,000 cells
Dasatinib uptake (IUR) (K562 and K562 DasR cells; K562 control, without Ko143): 24.56 ng/200,000 cells
SMILES: Cc1nc(Nc2ncc(C(=O)Nc3c(C)cccc3Cl)s2)cc(N2CCN(CCO)CC2)n1 [dasatinib]
Suboptimal response, share of treated patients [1]: < 10%

SMILES: COc1ccc2c3c([nH]c2c1)[C@H](CC(C)C)N1C(=O)[C@H](CCC(=O)OC(C)(C)C)NC(=O)[C@@H]1C3 [Ko143]
Effect of addition of Ko143 on dasatinib IC50 ([2]; K562 25, 50 and 200 nM DasR lines): no effect
Effect of Ko143 on ponatinib IC50 ([2]; K562 later stage DasR intermediates with lower ABCG2 expression, and DMSO control line): no significant change

SMILES: Cc1cn(-c2cc(NC(=O)c3ccc(C)c(Nc4nccc(-c5cccnc5)n4)c3)cc(C(F)(F)F)c2)cn1 [nilotinib]
Suboptimal response, share of treated patients [1]: < 10%

SMILES: Cc1ccc(NC(=O)c2ccc(CN3CCN(C)CC3)cc2)cc1Nc1nccc(-c2cccnc2)n1 [imatinib]
10 year survival rate [1]: over 83%
Suboptimal response, share of treated patients [1]: 10–15%

SMILES: COc1cc(Nc2c(C#N)cnc3cc(OCCCN4CCN(C)CC4)c(OC)cc23)c(Cl)cc1Cl [bosutinib]
Suboptimal response, share of treated patients [1]: < 10%
